{"source": "paper PMC9248236", "about": "(Nature chemical biology, 2022)", "origin": "cited, not measured here", "tested_on": "IR", "conditions": "competition binding assays, substitution at B24 of insulin", "data": [{"substance": "IleB24: human insulin analog with PheB24 substituted by isoleucine (literature)", "values": [{"measurement": "affinity for IR lower than native PheB24 human insulin", "result": "2–3 fold"}]}, {"substance": "LeuB24: human insulin analog with PheB24 substituted by leucine (literature)", "values": [{"measurement": "affinity for IR lower than native PheB24 human insulin", "result": "2–3 fold"}]}]}
